Results: US8492559B2, “Substituted indole compounds” (Gruenenthal GmbH, priority 2009, dated 2013)

Biological target: T1, human B1R receptor (hB1R) (Homo sapiens, UniProt P46663)
T1 construct: expressed in transfected cells; host or cells: CHO K1 cells
T1 sequence (P46663 1-353): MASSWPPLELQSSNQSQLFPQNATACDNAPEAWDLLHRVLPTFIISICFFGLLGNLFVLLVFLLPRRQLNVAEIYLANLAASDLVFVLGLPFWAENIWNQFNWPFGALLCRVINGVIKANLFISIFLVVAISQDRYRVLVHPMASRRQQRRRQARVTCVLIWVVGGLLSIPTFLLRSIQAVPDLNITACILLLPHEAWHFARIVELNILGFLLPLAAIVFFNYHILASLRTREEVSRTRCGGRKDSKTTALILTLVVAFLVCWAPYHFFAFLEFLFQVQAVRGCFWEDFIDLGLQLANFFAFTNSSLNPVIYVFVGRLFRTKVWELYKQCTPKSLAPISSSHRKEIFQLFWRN
Assay: Functional investigation on the bradykinin 1 receptor (B1R), FLIPR Ca2+ assay, hB1R cells
Format: cell-based
Conditions: CHO-K1, 10 μM test substance; CHO K1 cells with human B1R; agonist Lys-Des-Arg9 bradykinin; % of maximum achievable inhibition; read-out: B1R antagonism, human [10 μM] % inhibition
Description: The agonistic or antagonistic action of substances can be quantified on the bradykinin 1 receptor (B1R) of the human and rat species with ectopically expressing cell lines (CHO K1 cells) and with the aid of a Ca^2+-sensitive dye (Fluo-4) using a fluorescent imaging plate reader (FLIPR). The indication in % activation is based on the Ca^2+ signal after addition of Lys-Des-Arg^9 bradykinin (0.5 nM) or Des-Arg^9 bradykinin (100 nM). Antagonists lead to a suppression of the Ca^2+ influx following administration of the agonist. The % inhibition in comparison with the maximum achievable inhibition is indicated.
1. Functional Investigation on the Bradykinin 1 Receptor (B1R)
The agonistic or antagonistic action of substances can be determined on the bradykinin 1 receptor (B1R) of the human and rat species with the following assay. According to this assay, the Ca^2+ inflow through the channel is quantified with the aid of a Ca^2+-sensitive dye (Fluo-4 type, Molecular Probes Europe BV, Leiden, Netherlands) in a fluorescent imaging plate reader (FLIPR, Molecular Devices, Sunnyvale, USA).
Chinese hamster ovary cells (CHO K1 cells) which are stably transfected with the human B1R gene (hB1R cells) or the B1R gene of the rat (rB1R cells) are used. For functional investigations these cells are plated-out onto black 96-well plates with a clear base (BD Biosciences, Heidelberg, Germany or Greiner, Frickenhausen, Germany) in a density of 20,000-35,000 cells/well. Overnight the cells are incubated at 37° C. and 5% CO2 in culture medium (hB1R cells: Ham's Nutrient Mixture F12, Gibco Invitrogen GmbH, Karlsruhe, Germany or DMEM, Sigma-Aldrich, Taufkirchen, Germany; rB1R cells: D-MEM/F12, Gibco Invitrogen, Karlsruhe, Germany) with 10 vol. % FBS (foetal bovine serum, Gibco Invitrogen GmbH, Karlsruhe, Germany or PAN Biotech GmbH, Aidenbach, Germany).
On the following day the cells are loaded with 2.13 μM Fluo-4 (Molecular Probes Europe BV, Leiden, Netherlands) in HBSS buffer (Hank's buffered saline solution, Gibco Invitrogen GmbH, Karlsruhe, Germany) with 2.5 mM probenecid (Sigma-Aldrich, Taufkirchen, Germany) and 10 mM HEPES (Sigma-Aldrich, Taufkirchen, Germany) for 60 min at 37° C. The plates are subsequently washed twice with HBSS buffer, and HBSS buffer which additionally contains 0.1% BSA (bovine serum albumin; Sigma-Aldrich, Taufkirchen, Germany), 5.6 mM glucose and 0.05% gelatine (Merck KGaA, Darmstadt, Germany) is added. After a further incubation of 20 minutes at room temperature, the plates are inserted into the FLIPR for Ca^2+ measurement.
Alternatively they are washed with buffer A (15 mM HEPES, 80 mM NaCl, 5 mM KCl, 1.2 mM CaCl2, 0.7 mM MgSO4, 2 g/l glucose, 2.5 mM probenecid) and loaded with buffer A with added 2.5 μM Fluo-4 and 0.025% Pluronic F127 (Sigma-Aldrich, Taufkirchen, Germany). The cells are then washed twice with buffer A and incubated for 30 minutes with buffer A, which additionally contains 0.05% BSA and 0.05% gelatine, at room temperature and then used for Ca^2+ measurement in the FLIPR. The Ca^2+-dependent fluorescence is measured here before and after addition of substances (λex=488 nm, λem=540 nm). The quantification is performed by measuring the highest fluorescence intensity (FC, fluorescence counts) over time.
The FLIPR protocol comprises two additions of substance. Test substances (10 μM) are first pipetted onto the cells and the Ca^2+ inflow is compared with the control (hB1R: Lys-Des-Arg^9 bradykinin>=50 nM; rB1R: Des-Arg^9 bradykinin 10 μM). The value in % activation based on the Ca^2+ signal after addition of Lys-Des-Arg^9 bradykinin (>=50 nM) or Des-Arg^9 bradykinin (10 μM) is obtained therefrom. After incubation for 10-20 minutes, Lys-Des-Arg^9 bradykinin (hB1R) or Des-Arg^9 bradykinin (rB1R) is applied in the EC80 concentration and the inflow of Ca^2+ is likewise determined.
Antagonists lead to a suppression of the Ca^2+ inflow. The % inhibition in comparison with the maximum achievable inhibition is calculated. […]

inhibition at 10 µM [%] | Structure (SMILES)
73 | COc1cc(C)c(S(=O)(=O)Nc2cccc3ccn(CC(=O)N4CCC5(CC4)CC(c4ccncc4)=NO5)c23)c(C)c1 [Compound G-13, 4-Methoxy-2,6-dimethyl-N-(1-(2-oxo-2-(3-(pyridin-4-yl)-1-oxa-2,8-diazaspiro[4.5]dec-2-en-8-yl)ethyl)-1H-indol-7-yl)benzenesulfonic acid amide]
98 | COc1cc(C)c(S(=O)(=O)NCc2cccc3ccn(CC(=O)N4CCC5(CC4)CCN(c4ccncc4)CC5)c23)c(C)c1 [Compound G-24, 4-Methoxy-2,6-dimethyl-N-[[1-[2-oxo-2-(9-pyridin-4-yl-3,9-diazaspiro[5.5]undecan-3-yl)-ethyl]-1H-indol-7-yl]-methyl]-benzenesulfonic acid amide]
100 | COc1cc(C)c(S(=O)(=O)Nc2cccc3ccn(CC(=O)N4CCC5(CCC(Oc6ccncc6)CC5)CC4)c23)c(C)c1 [Compound G-22, 4-Methoxy-2,6-dimethyl-N-(1-(2-oxo-2-(9-(pyridin-4-yloxy)-3-azaspiro[5.5]undecan-3-yl)ethyl)-1H-indol-7-yl)benzenesulfonic acid amide]
99 | COc1cc(C)c(S(=O)(=O)Nc2cccc3ccn(CC(=O)N4CCC5(CCC(N6CCC6)CC5)CC4)c23)c(C)c1 [Compound G-18, N-(1-(2-(9-(azetidin-1-yl)-3-azaspiro[5.5]undecan-3-yl)-2-oxoethyl)-1H-indol-7-yl)-4-methoxy-2,6-dimethylbenzenesulfonic acid amide]

Second part, the compound before the results:

Structure (SMILES) | inhibition at 10 µM [%]
O=C(Cn1ccc2ccc(N3Cc4cccc(Cl)c4C3=O)cc21)N1CCC2(CCC(Oc3ccncc3)CC2)CC1 [Compound G-19, 7-Chloro-2-(1-(2-oxo-2-(9-(pyridin-4-yloxy)-3-azaspiro[5.5]undecan-3-yl)ethyl)-1H-indol-6-yl)isoindolin-1-one] | 97
COc1cc(C)c(S(=O)(=O)Nc2cccc3ccn(CC(=O)N4CCC5(CC4)C(=O)NCN5c4ccccc4)c23)c(C)c1 [Compound G-04, 4-Methoxy-2,6-dimethyl-N-[1-[2-oxo-2-(1-oxo-4-phenyl-2,4,8-triazaspiro[4.5]decan-8-yl)-ethyl]-1H-indol-7-yl]-benzenesulfonic acid amide] | 68
COc1cc(C)c(S(=O)(=O)Nc2cccc3ccn(CCC(=O)NCCC4CCN(c5ccncc5)CC4)c23)c(C)c1 [G_CC-47, 3-[7-[[(4-Methoxy-2,6-dimethyl-phenyl)sulfonyl]amino]-1H-indol-1-yl]-N-[2-(1-pyridin-4-yl-piperidin-4-yl)-ethyl]-propionamide] | 100
O=C(CCn1ccc2ccc(N3Cc4cccc(Cl)c4C3=O)cc21)N1CCC2(CC1)CCN(c1ccncc1)CC2 [Compound G-07, 7-Chloro-2-[1-[3-oxo-3-(9-pyridin-4-yl-3,9-diazaspiro[5.5]undecan-3-yl)-propyl]-1H-indol-6-yl]-2,3-dihydro-isoindol-1-one] | 96
COc1cc(C)c(S(=O)(=O)Nc2ccc3ccn(CC(=O)N4CCC(N5CCN(C)CC5)CC4)c3c2)c(C)c1 [G_CC-2, 4-Methoxy-2,6-dimethyl-N-[1-[2-[4-(4-methyl-piperazin-1-yl)-piperidin-1-yl]-2-oxo-ethyl]-1H-indol-6-yl]-benzenesulfonic acid amide] | 46
COc1cc(C)c(S(=O)(=O)Nc2cccc3ccn(CC(=O)N(C)CCCN4CCN(c5ccncc5)CC4)c23)c(C)c1 [G_CC-88, 2-[7-[[(4-Methoxy-2,6-dimethyl-phenyl)sulfonyl]amino]-1H-indol-1-yl]-N-methyl-N-[3-(4-pyridin-4-yl-piperazin-1-yl)-propyl]-acetamide] | 100
COc1cc(C)c(S(=O)(=O)Nc2ccc3ccn(CC(=O)N(C)CCCN4CCN(c5ccncc5)CC4)c3c2)c(C)c1 [G_CC-76, 2-[6-[[(4-Methoxy-2,6-dimethyl-phenyl)sulfonyl]amino]-1H-indol-1-yl]-N-methyl-N-[3-(4-pyridin-4-yl-piperazin-1-yl)-propyl]-acetamide] | 92
